Assay results taken from ChEMBL document CHEMBL3046647, “Khayasin and 2S-methylbutanoylproceranolide: Promising candidate insecticides for the control of the coconut leaf beetle, Brontispa longissima” (2011).
In brackets after ≈: the same amount, converted by molar mass.

Legend:
Type in all cases: functional
Brontispa longissima [1] = assay: Insecticidal activity against Brontispa longissima fourth-instar larvae fed on compound pre-treated Cocos nucifera L. leaves assessed as insect mortality at 50 ug/ml measured 48 hr after compound treatment; details: in Cocos nucifera
Brontispa longissima [2] = assay: Insecticidal activity against Brontispa longissima fifth-instar larvae fed on compound pre-treated Cocos nucifera L. leaves assessed as insect mortality at 50 ug/ml measured 24 hr after compound treatment; details: in Cocos nucifera
Brontispa longissima [3] = assay: Insecticidal activity against Brontispa longissima second-instar larvae fed on compound pre-treated Cocos nucifera L. leaves assessed as insect mortality at 50 ug/ml measured 24 hr after compound treatment; details: in Cocos nucifera
Brontispa longissima [4] = assay: Insecticidal activity against Brontispa longissima third-instar larvae fed on compound pre-treated Cocos nucifera L. leaves assessed as insect mortality at 50 ug/ml measured 24 hr after compound treatment; details: in Cocos nucifera
Brontispa longissima [5] = assay: Insecticidal activity against Brontispa longissima fourth-instar larvae fed on compound pre-treated Cocos nucifera L. leaves assessed as insect mortality at 50 ug/ml measured 12 hr after compound treatment; details: in Cocos nucifera
Brontispa longissima [6] = assay: Insecticidal activity against Brontispa longissima fifth-instar larvae fed on compound pre-treated Cocos nucifera L. leaves assessed as insect mortality measured 24 hr after compound treatment; details: in Cocos nucifera
Spodoptera litura [7] = assay: Antifeedant activity against Spodoptera litura third-instar larvae fed on compound pre-treated castor-oil plant leaves assessed as antifeedant rate at 1 mg/ml after 24 hr
Brontispa longissima [8] = assay: Insecticidal activity against Brontispa longissima fifth-instar larvae fed on compound pre-treated Cocos nucifera L. leaves assessed as insect mortality at 50 ug/ml measured 48 hr after compound treatment; details: in Cocos nucifera
Brontispa longissima [9] = assay: Insecticidal activity against Brontispa longissima second-instar larvae fed on compound pre-treated Cocos nucifera L. leaves assessed as insect mortality at 50 ug/ml measured 12 hr after compound treatment; details: in Cocos nucifera
Spodoptera litura [10] = assay: Antifeedant activity against Spodoptera litura third-instar larvae fed on compound pre-treated castor-oil plant leaves assessed as antifeedant rate at 0.5 mg/ml after 24 hr
Spodoptera litura [11] = assay: Insecticidal activity against Spodoptera litura third-instar larvae fed on compound pre-treated Ricinus communis L. leaves assessed as insect mortality at 0.5 mg/ml measured 12 days after compound treatment; details: in Ricinus communis
Brontispa longissima [12] = assay: Insecticidal activity against Brontispa longissima fifth-instar larvae fed on compound pre-treated Cocos nucifera L. leaves assessed as insect mortality measured 48 hr after compound treatment; details: in Cocos nucifera
Brontispa longissima [13] = assay: Insecticidal activity against Brontispa longissima fourth-instar larvae fed on compound pre-treated Cocos nucifera L. leaves assessed as insect mortality at 50 ug/ml measured 72 hr after compound treatment; details: in Cocos nucifera
Brontispa longissima [14] = assay: Insecticidal activity against Brontispa longissima fifth-instar larvae fed on compound pre-treated Cocos nucifera L. leaves assessed as insect mortality at 50 ug/ml measured 12 hr after compound treatment; details: in Cocos nucifera
Brontispa longissima [15] = assay: Insecticidal activity against Brontispa longissima third-instar larvae fed on compound pre-treated Cocos nucifera L. leaves assessed as insect mortality at 50 ug/ml measured 12 hr after compound treatment; details: in Cocos nucifera
Brontispa longissima [16] = assay: Insecticidal activity against Brontispa longissima fifth-instar larvae fed on compound pre-treated Cocos nucifera L. leaves assessed as insect mortality at 50 ug/ml measured 72 hr after compound treatment; details: in Cocos nucifera
Brontispa longissima [17] = assay: Insecticidal activity against Brontispa longissima fifth-instar larvae fed on compound pre-treated Cocos nucifera L. leaves assessed as insect mortality at 25 ug/ml measured 48 hr after compound treatment; details: in Cocos nucifera
Brontispa longissima [18] = assay: Insecticidal activity against Brontispa longissima second-instar larvae fed on compound pre-treated Cocos nucifera L. leaves assessed as insect mortality at 50 ug/ml measured 48 hr after compound treatment; details: in Cocos nucifera
Spodoptera litura [19] = assay: Insecticidal activity against Spodoptera litura third-instar larvae fed on compound pre-treated Ricinus communis L. leaves assessed as insect mortality at 1 mg/ml measured 12 days after compound treatment; details: in Ricinus communis
Brontispa longissima [20] = assay: Insecticidal activity against Brontispa longissima fifth-instar larvae fed on compound pre-treated Cocos nucifera L. leaves assessed as insect mortality at 25 ug/ml measured 12 hr after compound treatment; details: in Cocos nucifera
Brontispa longissima [21] = assay: Insecticidal activity against Brontispa longissima third-instar larvae fed on compound pre-treated Cocos nucifera L. leaves assessed as insect mortality at 50 ug/ml measured 72 hr after compound treatment; details: in Cocos nucifera
Spodoptera litura [22] = assay: Antifeedant activity against Spodoptera litura third-instar larvae fed on compound pre-treated castor-oil plant leaves assessed as antifeedant rate at 1 mg/ml after 48 hr
Brontispa longissima [23] = assay: Insecticidal activity against Brontispa longissima third-instar larvae fed on compound pre-treated Cocos nucifera L. leaves assessed as insect mortality at 50 ug/ml measured 48 hr after compound treatment; details: in Cocos nucifera
Brontispa longissima [24] = assay: Insecticidal activity against Brontispa longissima second-instar larvae fed on compound pre-treated Cocos nucifera L. leaves assessed as insect mortality at 50 ug/ml measured 72 hr after compound treatment; details: in Cocos nucifera
Spodoptera litura [25] = assay: Antifeedant activity against Spodoptera litura third-instar larvae fed on compound pre-treated castor-oil plant leaves assessed as antifeedant rate at 0.5 mg/ml after 48 hr
Brontispa longissima [26] = assay: Insecticidal activity against Brontispa longissima fifth-instar larvae fed on compound pre-treated Cocos nucifera L. leaves assessed as insect mortality at 25 ug/ml measured 72 hr after compound treatment; details: in Cocos nucifera
Brontispa longissima [27] = assay: Insecticidal activity against Brontispa longissima fifth-instar larvae fed on compound pre-treated Cocos nucifera L. leaves assessed as insect mortality at 25 ug/ml measured 24 hr after compound treatment; details: in Cocos nucifera
Brontispa longissima [28] = assay: Insecticidal activity against Brontispa longissima fourth-instar larvae fed on compound pre-treated Cocos nucifera L. leaves assessed as insect mortality at 50 ug/ml measured 24 hr after compound treatment; details: in Cocos nucifera
Brontispa longissima [29] = assay: Insecticidal activity against Brontispa longissima fifth-instar larvae fed on compound pre-treated Cocos nucifera L. leaves assessed as insect mortality at 10 ug/ml measured 12 hr after compound treatment; details: in Cocos nucifera
Brontispa longissima [30] = assay: Insecticidal activity against Brontispa longissima fifth-instar larvae fed on compound pre-treated Cocos nucifera L. leaves assessed as insect mortality at 10 ug/ml measured 72 hr after compound treatment; details: in Cocos nucifera
Brontispa longissima [31] = assay: Insecticidal activity against Brontispa longissima fifth-instar larvae fed on compound pre-treated Cocos nucifera L. leaves assessed as insect mortality at 10 ug/ml measured 48 hr after compound treatment; details: in Cocos nucifera
Brontispa longissima [32] = assay: Insecticidal activity against Brontispa longissima fifth-instar larvae fed on compound pre-treated Cocos nucifera L. leaves assessed as insect mortality at 10 ug/ml measured 24 hr after compound treatment; details: in Cocos nucifera
Brontispa longissima [33] = assay: Insecticidal activity against Brontispa longissima fifth-instar larvae fed on compound pre-treated Cocos nucifera L. leaves assessed as insect mortality at 1 ug/ml measured 72 hr after compound treatment; details: in Cocos nucifera
Brontispa longissima [34] = assay: Insecticidal activity against Brontispa longissima fifth-instar larvae fed on compound pre-treated Cocos nucifera L. leaves assessed as insect mortality at 1 ug/ml measured 12 hr after compound treatment; details: in Cocos nucifera
Brontispa longissima [35] = assay: Insecticidal activity against Brontispa longissima fifth-instar larvae fed on compound pre-treated Cocos nucifera L. leaves assessed as insect mortality at 1 ug/ml measured 24 hr after compound treatment; details: in Cocos nucifera
Brontispa longissima [36] = assay: Insecticidal activity against Brontispa longissima fifth-instar larvae fed on compound pre-treated Cocos nucifera L. leaves assessed as insect mortality at 1 ug/ml measured 48 hr after compound treatment; details: in Cocos nucifera
Brontispa longissima [37] = assay: Insecticidal activity against Brontispa longissima fifth-instar larvae fed on compound pre-treated Cocos nucifera L. leaves assessed as insect mortality at 5 ug/ml measured 72 hr after compound treatment; details: in Cocos nucifera
Brontispa longissima [38] = assay: Insecticidal activity against Brontispa longissima fifth-instar larvae fed on compound pre-treated Cocos nucifera L. leaves assessed as insect mortality at 5 ug/ml measured 48 hr after compound treatment; details: in Cocos nucifera
Brontispa longissima [39] = assay: Insecticidal activity against Brontispa longissima fifth-instar larvae fed on compound pre-treated Cocos nucifera L. leaves assessed as insect mortality at 5 ug/ml measured 12 hr after compound treatment; details: in Cocos nucifera
Brontispa longissima [40] = assay: Insecticidal activity against Brontispa longissima fifth-instar larvae fed on compound pre-treated Cocos nucifera L. leaves assessed as insect mortality at 5 ug/ml measured 24 hr after compound treatment; details: in Cocos nucifera

SMILES	mortality at 50 µg/mL (Brontispa longissima [1])	mortality at 50 µg/mL (Brontispa longissima [2])	mortality at 50 µg/mL (Brontispa longissima [3])	mortality at 50 µg/mL (Brontispa longissima [4])	mortality at 50 µg/mL (Brontispa longissima [5])	LC50 (Brontispa longissima [6])	Activity (Spodoptera litura [7])	mortality at 50 µg/mL (Brontispa longissima [8])	mortality at 50 µg/mL (Brontispa longissima [9])	LC50 (Brontispa longissima [12])	mortality at 50 µg/mL (Brontispa longissima [13])	mortality at 50 µg/mL (Brontispa longissima [14])	mortality at 50 µg/mL (Brontispa longissima [15])	mortality at 50 µg/mL (Brontispa longissima [16])	mortality at 50 µg/mL (Brontispa longissima [18])	mortality at 1000 µg/mL (Spodoptera litura [19])	mortality at 50 µg/mL (Brontispa longissima [21])	Activity (Spodoptera litura [22])	mortality at 50 µg/mL (Brontispa longissima [23])	mortality at 50 µg/mL (Brontispa longissima [24])	also measured
CC[C@H](C)C(=O)O[C@@H]1[C@H]2CC3=C4CC(=O)O[C@@H](c5ccoc5)[C@]4(C)CC[C@@H]3[C@@](C)(C2=O)[C@@H](CC(=O)OC)C1(C)C [2'S-METHYLBUTANOYLPROCERANOLIDE]	0%	96.7%	6.67%	7.14%	0%	10.6 µg/mL (≈ 19.1 µM)	48.4%	96.7%	3.33%	4.03 µg/mL (≈ 7.27 µM)	0%	96.7%	3.57%	100%	16.7%	50%	14.3%	53%	7.14%	23.3%	Activity (Spodoptera litura [10]): 33.9%; mortality at 500 µg/mL (Spodoptera litura [11]): 24.1%; mortality at 25 µg/mL (Brontispa longissima [17]): 83.3%; mortality at 25 µg/mL (Brontispa longissima [20]): 76.7%; Activity (Spodoptera litura [25]): 41.7%; mortality at 25 µg/mL (Brontispa longissima [26]): 86.7%; mortality at 25 µg/mL (Brontispa longissima [27]): 80%; mortality at 50 µg/mL (Brontispa longissima [28]): 0%
C/C=C(\C)C(=O)O[C@H]1C[C@@H](OC(C)=O)[C@@]2(C(=O)OC)CO[C@H]3[C@@H](O)[C@@](C)([C@]45O[C@@]4(C)[C@@H]4C[C@H]5O[C@@H]5OC=C[C@@]54O)[C@H]4[C@]1(CO[C@]4(O)C(=O)OC)[C@@H]32 [AZADIRACHTIN A]		10%						10%				3.33%		10%							mortality at 10 µg/mL (Brontispa longissima [29]): 20%; mortality at 10 µg/mL (Brontispa longissima [30]): 63.3%; mortality at 10 µg/mL (Brontispa longissima [31]): 56.7%; mortality at 10 µg/mL (Brontispa longissima [32]): 46.7%
CCC(C)C(=O)OC1[C@@H]2CC3=C4CC(=O)O[C@@H](c5ccoc5)[C@]4(C)CCC3[C@@](C)(C2=O)[C@@H](CC(=O)OC)C1(C)C (some centres not stated) [KHAYASIN]	100%	100%	100%	100%	100%	7.28 µg/mL (≈ 13.1 µM)	48.4%	100%	100%	3.39 µg/mL (≈ 6.11 µM)	100%	96.7%	100%	100%	100%	50%	100%	53%	100%	100%	mortality at 1 µg/mL (Brontispa longissima [33]): 26.7%; mortality at 1 µg/mL (Brontispa longissima [34]): 23.3%; Activity (Spodoptera litura [10]): 33.9%; mortality at 500 µg/mL (Spodoptera litura [11]): 24.1%; mortality at 1 µg/mL (Brontispa longissima [35]): 20%; mortality at 10 µg/mL (Brontispa longissima [29]): 71.8%; mortality at 10 µg/mL (Brontispa longissima [30]): 86.3%; mortality at 10 µg/mL (Brontispa longissima [31]): 79.3%; mortality at 1 µg/mL (Brontispa longissima [36]): 23.3%; Activity (Spodoptera litura [25]): 41.7%; mortality at 10 µg/mL (Brontispa longissima [32]): 79.3%; mortality at 50 µg/mL (Brontispa longissima [28]): 100%
C=C(C)[C@H]1Cc2c(ccc3c2O[C@@H]2COc4cc(OC)c(OC)cc4[C@@H]2C3=O)O1 [ROTENONE]		86.7%				5.32 µg/mL (≈ 13.5 µM)		96.7%		1.61 µg/mL (≈ 4.08 µM)		86.7%		100%							mortality at 5 µg/mL (Brontispa longissima [37]): 76.7%; mortality at 5 µg/mL (Brontispa longissima [38]): 73.3%; mortality at 10 µg/mL (Brontispa longissima [29]): 80%; mortality at 5 µg/mL (Brontispa longissima [39]): 60%; mortality at 10 µg/mL (Brontispa longissima [30]): 90%; mortality at 10 µg/mL (Brontispa longissima [31]): 90%; mortality at 10 µg/mL (Brontispa longissima [32]): 90%; mortality at 5 µg/mL (Brontispa longissima [40]): 66.7%
CC(=O)O[C@@H]1C[C@H](O)[C@@]23CO[C@@H](O)[C@]1(C)[C@@H]2C[C@@H](O)[C@]1(C)[C@@H]3C(=O)[C@H](OC(C)=O)[C@@]2(C)[C@H](c3ccoc3)C[C@H]3O[C@]321 [TOOSENDANIN]	66.7%		100%	63.3%	53.3%		87.1%		96.7%		73.3%		53.3%		100%	100%	83.3%	90.6%	73.3%	100%	mortality at 50 µg/mL (Brontispa longissima [28]): 60%
